# Test results taken from publication PMC3781062 (PLoS ONE, 2013).
# Numbering of substitutions follows the chain as printed. “And” between values parts separate entries of the source, which are not always exact repeats. Equal values may be shown once.
# Columns and labels:
# CYP1B1 [1] = target: T1, CYP1B1 (Homo sapiens, UniProt Q16678, L432V); experiment: Inhibition of CYP1B1-dependent EROD activity, E. coli membranes co-expressing CYP1B1 and CPR; type: biochemical
# T1 construct: made in house; host or cells: E. coli JM109
# T1 sequence (Q16678 1-543 L432V): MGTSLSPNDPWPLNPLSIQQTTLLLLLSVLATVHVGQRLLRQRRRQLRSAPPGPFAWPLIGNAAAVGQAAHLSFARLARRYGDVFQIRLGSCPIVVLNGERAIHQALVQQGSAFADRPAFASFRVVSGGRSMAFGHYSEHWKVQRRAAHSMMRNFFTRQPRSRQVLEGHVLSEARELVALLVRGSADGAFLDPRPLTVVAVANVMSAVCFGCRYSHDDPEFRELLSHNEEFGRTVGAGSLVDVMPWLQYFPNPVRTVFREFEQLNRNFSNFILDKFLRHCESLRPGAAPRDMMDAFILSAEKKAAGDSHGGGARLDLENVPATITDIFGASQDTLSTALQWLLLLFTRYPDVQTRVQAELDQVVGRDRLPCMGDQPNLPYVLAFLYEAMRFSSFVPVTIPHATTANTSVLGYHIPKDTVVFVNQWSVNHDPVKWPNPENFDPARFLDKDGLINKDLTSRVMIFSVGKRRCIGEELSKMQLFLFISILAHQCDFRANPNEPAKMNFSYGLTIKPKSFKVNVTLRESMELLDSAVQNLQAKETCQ
# Protocol: (§1) EROD activity was determined as previously described, but modified in 96-well plate format with quadruplicate replicates, using a Fluoroskan fluorescence reader (Labsystems, Cambridge, UK). […] Calibration curves were constructed with authentic resorufin standards and linear regression analysis used to calculate the amount of resorufin formed in each test sample. Enzyme kinetics for CYP1B1-catalysed EROD activity were determined at substrate concentrations from 0.002 to 2 µM. Apparent Km and Vmax values were estimated by non-linear regression analysis (GraFit software program, UK) of the substrate concentration [S]-enzyme activity [V], fitting data to a Michaelis-Menten model.
# CYP1B1*4 = target: T2, CYP1B1*4 (Homo sapiens, UniProt Q16678, L432V/N453S); experiment: Inhibition of EROD activity of CYP1B1 allelic variant co-expressed with CPR; type: biochemical; details: mean ± SD of triplicate determinations, read-out: IC50 against CYP1B1-dependent EROD activity (converted)
# T2 construct: made in house; host or cells: E. coli JM109
# T2 sequence (Q16678 1-543 L432V/N453S): T1 sequence (Q16678 1-543 L432V) with N453S
# Protocol: (§2) Construction of CYP1B1 and CPR expression plasmids has been described previously. The CYP1B1 alleles CYP1B1*1, CYP1B1*3 and CYP1B1*4 were co-expressed with CPR in E. coli JM109 cells and membranes prepared as described previously. P450 content was determined spectrophotometrically, and CPR activity estimated by cytochrome c reduction. […] Solubilised protein lysates or human liver microsomes were separated by SDS-PAGE, transferred onto Hybond-ECL nitrocellulose membranes (Amersham, UK) and probed with CYP1B1 (BD Gentest, Woburn, MA) and CPR antibodies, as previously described.
# as §1
# CYP1B1*3 = CYP1B1*3 (Homo sapiens, UniProt Q16678, form not given); experiment: as above; type: biochemical; details: probe 7-ethoxyresorufin (EROD)
# Protocol: as §2, §1
# CYP1B1*1 = CYP1B1*1 (Homo sapiens, UniProt Q16678); experiment: as above; type: biochemical; details: IC50 against CYP1B1-dependent EROD activity, mean ± SD of triplicate determinations
# Protocol: as §2, §1
# CHO-CPR cells = experiment: PUVA cytotoxicity, neutral red uptake assay
# Protocol: (§3) CHO cell lines stably over-expressing CYP1B1 and CPR were generated as previously described. CHO cells were maintained at 37°C/5% CO2 in Dulbecco’s Modified Eagle’s medium (DMEM) supplemented with 10% fetal bovine serum (FBS), 100 U/ml penicillin, 100 µg/ml streptomycin, 1 U/ml each of hypoxanthine and thymine (Invitrogen, Paisley-UK). Similar culture conditions, with the addition of G-418 (400 µg/ml), were used for CHO cells stably expressing CPR (CHO-CPR). CHO cells stably co-expressing CYP1B1 and CPR (CHO-1B1/CPR) were maintained at 37°C/5% CO2, but in hypoxanthine and thymine-free DMEM supplemented with 10% dialysed FBS and the appropriate selection (0.3 µM MTX and 400 µg/ml G-418). HaCaT keratinocytes were grown to 80% confluence in DMEM supplemented with 10% fetal bovine serum (FBS), 100 U/ml penicillin, 100 µg/ml streptomycin and 2 mM glutamine. Cells were harvested and microsomes prepared as described previously. HaCaT cell microsomes and microsomes from human skin biopsies obtained from peri-lesional skin from psoriasis patients, [13] were used to investigate functional CYP1B1 expression using EROD assays.
# (§4) To investigate CHO cell sensitivity to UVA and PUVA, actively dividing cells (10000 cells/well) were seeded in 96-well plates (Iwaki, Japan) in quadruplicates in 200 µl culture medium and allowed to grow for 18–20 h. Cells were irradiated at room temperature with a UVA source (2×6 ft Cosmolux 15500/100 W, 1.7 mW/cm^2 (320–400 nm; λmax = 365 nm), Germany) through a 4 mm thick window glass filter at multiple UVA doses (0, 1.5, 4.0 and 7.5 J/cm^2), monitoring irradiance with a Waldmann UV meter equipped with UVA detector. Control samples were kept in the dark under the same conditions. […] Control samples were pre-incubated with solvent and kept in the dark under the same conditions. After each treatment, fresh culture medium was added and cells returned to an incubator at 37°C/5%CO2 for 24 h. Cell viability was assessed using neutral red uptake assays; quadruplicate replicates of each treatment were performed, and each experiment repeated twice. PUVA cytotoxicity data was assessed by non-linear regression analysis for dose-response curves (IC50) fitting (GraFit software program, UK) and unpaired Student’s t-test (Statview 4.1 software).
# CHO cells = experiment: PUVA cytotoxicity, neutral red uptake assay
# Protocol: as §3, §4
# CYP1A1 = target: T3, CYP1A1 (Homo sapiens, UniProt P04798); details: α-naphthoflavone 5 µM; recombinant CYP1A1
# T3 sequence (P04798 1-512): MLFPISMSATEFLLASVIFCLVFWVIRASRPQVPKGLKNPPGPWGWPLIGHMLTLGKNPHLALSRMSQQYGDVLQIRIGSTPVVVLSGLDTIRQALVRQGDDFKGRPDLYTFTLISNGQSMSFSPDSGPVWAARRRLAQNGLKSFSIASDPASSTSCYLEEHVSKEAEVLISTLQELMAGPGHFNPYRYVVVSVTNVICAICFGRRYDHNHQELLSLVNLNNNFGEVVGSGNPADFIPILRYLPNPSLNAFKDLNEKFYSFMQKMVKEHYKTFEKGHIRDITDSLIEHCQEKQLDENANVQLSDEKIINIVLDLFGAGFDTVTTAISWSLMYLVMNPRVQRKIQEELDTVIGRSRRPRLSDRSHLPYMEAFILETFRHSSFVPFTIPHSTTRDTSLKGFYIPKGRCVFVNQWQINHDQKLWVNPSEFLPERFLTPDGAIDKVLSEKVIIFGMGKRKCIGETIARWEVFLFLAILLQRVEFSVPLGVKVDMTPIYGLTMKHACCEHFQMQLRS
# Protocol: (§5) After 3 min 37°C pre-incubation, reactions were initiated by 40 µl 5 mM NADPH containing 30 mM glutathione (GSH) in 50 mM PB (pH 7.4). Reactions were incubated for 10 min in a shaking water bath at 37°C, terminated by the addition of 100 µl ice-cold methanol containing 3% perchloric acid, and placed on ice for 10 min. Zero-time controls were terminated before the addition of P450 membranes; no-NADPH control reactions were initiated with 20 µl 50 mM PB (pH 7.4) containing 30 mM GSH. Samples were vortexed for 1 min, centrifuged at 12 000 rpm for 5 min, supernatants collected and analysed by HPLC analysis [28].
# human liver microsomes = experiment: 8-MOP metabolism (substrate depletion) in human liver microsomes; type: in vitro ADME; details: α-naphthoflavone 5 µM
# Protocol: as §5
# CYP1B1 [2] = details: α-naphthoflavone 5 µM; recombinant CYP1B1
# Protocol: as §5
Compound,"IC50 (CYP1B1 [1]; 7-ethoxyresorufin at Km concentration, estimated) [nM]","Mode of inhibition of CYP1B1 (CYP1B1 [1]; Lineweaver-Burk plots, six 8-MOP and four 7-ethoxyresorufin concentrations)",Ki (CYP1B1 [1]; n = 3) [nM],IC50 (CYP1B1*4),IC50 at 3 min (CYP1B1*3),IC50 (CYP1B1*1),"Cytotoxicity of 8-MOP alone (no UVA) (CHO-CPR cells; CHO-CPR cells, 8-MOP alone)","IC50 (CHO-CPR cells; Cricetulus griseus, light or radiation study, read-out: IC50 for 8-MOP in the presence of UVA)","Cytotoxicity of 8-MOP alone (no UVA) (CHO cells; CHO cells, 8-MOP 0–5 µM, dark)","IC50 (CHO cells; Cricetulus griseus, CHO, light or radiation study, read-out: IC50 for 8-MOP in the presence of UVA)",8-MOP metabolism in presence of inhibitor (CYP1A1),8-MOP metabolism in presence of inhibitor (human liver microsomes),8-MOP metabolism in presence of inhibitor (CYP1B1 [2])
"COc1c2occc2cc2ccc(=O)oc12 [8-MOP, 8-methoxypsoralen]",2000 ± 100,mixed inhibition,3580 ± 1000,601 nM and 600 nM,0.326 µg/mL and 1.5 µM,1710 nM and 1700 nM,not cytotoxic,0.54 µg/mL and 2.5 µM,no significant cytotoxicity,0.461 µg/mL and 2.13 µM,,,
O=c1cc(-c2ccccc2)oc2c1ccc1ccccc12 [α-naphthoflavone],,,,,,,,,,,53 % of control levels,59 % of control levels,62 % of control levels
